Measured values published in patent US8119692B2 (priority 2007, dated 2012).

biological target: Lethal factor protease (Bacillus anthracis, UniProt P15917); test: biochemical; conditions: LF (FRET) Ki^app
Sequence (P15917 34-809 limits assumed): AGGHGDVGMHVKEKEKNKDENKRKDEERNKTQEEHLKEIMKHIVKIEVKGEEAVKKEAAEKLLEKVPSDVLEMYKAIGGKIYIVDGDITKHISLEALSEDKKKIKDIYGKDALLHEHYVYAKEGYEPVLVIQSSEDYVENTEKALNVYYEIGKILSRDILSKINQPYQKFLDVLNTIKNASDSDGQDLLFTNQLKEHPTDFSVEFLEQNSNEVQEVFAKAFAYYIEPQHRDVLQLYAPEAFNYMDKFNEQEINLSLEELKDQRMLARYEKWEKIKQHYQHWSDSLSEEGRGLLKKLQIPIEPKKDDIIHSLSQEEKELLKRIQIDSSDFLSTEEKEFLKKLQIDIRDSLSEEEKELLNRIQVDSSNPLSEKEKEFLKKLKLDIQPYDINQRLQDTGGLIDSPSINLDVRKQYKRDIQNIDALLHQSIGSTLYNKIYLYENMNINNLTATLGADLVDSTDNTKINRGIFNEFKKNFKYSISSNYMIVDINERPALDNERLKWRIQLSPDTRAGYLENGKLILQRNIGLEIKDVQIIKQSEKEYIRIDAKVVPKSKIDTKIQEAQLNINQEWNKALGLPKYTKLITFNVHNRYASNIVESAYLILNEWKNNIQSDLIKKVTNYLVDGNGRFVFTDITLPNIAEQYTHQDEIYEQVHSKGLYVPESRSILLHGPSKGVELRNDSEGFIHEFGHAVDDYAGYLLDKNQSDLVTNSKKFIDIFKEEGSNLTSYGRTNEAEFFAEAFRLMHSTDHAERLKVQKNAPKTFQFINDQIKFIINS

Row | Compound | Ki [nM]
1 | COC(CCC(=O)NO)c1ccccc1F (stereo not drawn) [Compound 167564, 4-(2-fluorophenyl)-N-hydroxy-4-methoxybutanamide] | 52400
2 | COC(CCC(=O)NO)c1ccc(C)cc1C (stereo not drawn) [Compound 167541, 4-(2,4-dimethylphenyl)-N-hydroxy-4-methoxybutanamide] | 134000
3 | COC(CCC(=O)NO)c1cccc(Cl)c1 (stereo not drawn) [Compound 167461, 4-(3-chlorophenyl)-N-hydroxy-4-methoxybutanamide] | 87400
4 | CO[C@H](C[C@H](CCN(C)C)C(=O)NO)c1ccc(F)cc1 [Compound 167954, (2S,4R)-2-(2-(dimethylamino)ethyl)-4-(4-fluorophenyl)-N-hydroxy-4-methoxybutanamide] | 970
5 | CO[C@H](C[C@H](Cc1ccccc1)C(=O)NO)c1ccc(F)cc1 [Compound 167298] | 89500
6 | CCCC[C@@H](C[C@@H](OC)c1ccc(F)cc1)C(=O)NO [Compound 167336, (S)-2-((R)-2-(4-fluorophenyl)-2-methoxyethyl)-N-hydroxyhexanamide] | 1900
7 | CO[C@H](C[C@H](CCN(C)CCc1ccccc1)C(=O)NO)c1ccc(F)cc1 [Compound 167952, (2S,4R)-4-(4-fluorophenyl)-N-hydroxy-4-methoxy-2-(2-(methyl(phenethyl)amino)ethyl)butanamide] | 770
8 | CO[C@H](C[C@H](C/C=C/C(c1ccccc1)c1ccccc1)C(=O)NO)c1ccc(F)cc1 [Compound 167371, (2S,4E)-2-((2R)-2-(4-fluorophenyl)-2-methoxyethyl)-N-hydroxy-6,6-diphenylhex-4-enamide] | 14000
9 | COC(CCC(=O)NO)c1cccc(C)c1 (stereo not drawn) [Compound 167491, N-hydroxy-4-methoxy-4-m-tolylbutanamide] | 176000
10 | COC(CCC(=O)NO)c1cccc(C(F)(F)F)c1 (stereo not drawn) [Compound 167492, N-hydroxy-4-methoxy-4-(3-(trifluoromethyl)phenyl)butanamide] | > 300000
11 | COC(CCC(=O)NO)c1cccc(C)c1C (stereo not drawn) [Compound 167495, 4-(2,3-dimethylphenyl)-N-hydroxy-4-methoxybutanamide] | 269000
12 | COC(CCC(=O)NO)c1ccccc1C (stereo not drawn) [Compound 167540, N-hydroxy-4-methoxy-4-o-tolylbutanamide] | 152000
13 | COC(CCC(=O)NO)c1ccc(-c2ccccc2)cc1 (stereo not drawn) [Compound 167506, 4-(biphenyl-4-yl)-N-hydroxy-4-methoxybutanamide] | 85100
14 | COC(CC(CCc1ccccc1)C(=O)NO)c1ccc(F)cc1 (stereo not drawn) [Compound 167308, 4-(4-fluorophenyl)-N-hydroxy-4-methoxy-2-phenethylbutanamide] | 2400
15 | CO[C@H](C[C@H](CCCCN(C)Cc1ccc(F)cc1)C(=O)NO)c1ccc(F)cc1 [Compound 168138] | 390
16 | COC(CCC(=O)NO)c1ccc(F)cc1 (stereo not drawn) [Compound 167157, 4-(4-fluorophenyl)-N-hydroxy-4-methoxybutanamide] | 11700
17 | CO[C@H](C[C@H](CCN1CCC[C@H](CN2CCCCC2)C1)C(=O)NO)c1ccc(F)cc1 [Compound 168044, (2S,4R)-4-(4-fluorophenyl)-N-hydroxy-4-methoxy-2-(2-((R)-3-(piperidin-1-ylmethyl)piperidin-1-yl)ethyl)butanamide] | 1920
18 | CO[C@H](C[C@H](CCN(C)c1cccc(-c2ccc(F)c(C)c2)c1)C(=O)NO)c1ccc(F)cc1 [Compound 168007, (2S,4R)-2-(2-((4′-fluoro-3′-methylbiphenyl-3-yl)(methyl)amino)ethyl)-4-(4-fluorophenyl)-N-hydroxy-4-methoxybutanamide] | 19500
19 | CO[C@H](C[C@H](CCN1CCC(F)(F)CC1)C(=O)NO)c1ccc(F)cc1 [Compound 167884, (2S,4R)-2-(2-(4,4-difluoropiperidin-1-yl)ethyl)-4-(4-fluorophenyl)-N-hydroxy-4-methoxybutanamide] | 2200
20 | CO[C@H](C[C@H](CCN(C)c1cccc(Br)c1)C(=O)NO)c1ccc(F)cc1 [Compound 168000, (2S,4R)-2-(2-((3-bromophenyl)(methyl)amino)ethyl)-4-(4-fluorophenyl)-N-hydroxy-4-methoxybutanamide] | 2800
21 | CCC[C@@H](C[C@@H](OC)c1ccc(F)cc1)C(=O)NO [Compound 167432, (S)-2-((R)-2-(4-fluorophenyl)-2-methoxyethyl)-N-hydroxypentanamide] | 1570
22 | CCOC(CCC(=O)NO)c1ccc(F)cc1 (racemic) [Compound 167173, 4-ethoxy-4-(4-fluorophenyl)-N-hydroxybutanamide] | 171000
23 | CO[C@H](C[C@H](CCN1CCCCCC1)C(=O)NO)c1ccc(F)cc1 [Compound 167911, (2S,4R)-2-(2-(azepan-1-yl)ethyl)-4-(4-fluorophenyl)-N-hydroxy-4-methoxybutanamide] | 69500

Row | Compound | Ki [nM]
24 | CCCC[C@H](C[C@@H](OC)c1ccc(F)cc1)C(=O)NO [Compound 167353, (2R)-2-((2R)-2-(4-fluorophenyl)-2-methoxyethyl)-N-hydroxyhexanamide] | 5800
25 | C=CC[C@@H](C[C@@H](OC)c1ccc(F)cc1)C(=O)NO [Compound 167434, (2S)-2-((2R)-2-(4-fluorophenyl)-2-methoxyethyl)-N-hydroxypent-4-enamide] | 1160
26 | CO[C@H](C[C@H](CCN1CCN(CC2CCCCC2)CC1)C(=O)NO)c1ccc(F)cc1 [Compound 167961, (2S,4R)-2-(2-(4-(cyclohexylmethyl)piperazin-1-yl)ethyl)-4-(4-fluorophenyl)-N-hydroxy-4-methoxybutanamide] | 1800
27 | CO[C@H](C[C@H](CCN1CCC(c2ccccc2)CC1)C(=O)NO)c1ccc(F)cc1 [Compound 167987, (2S,4R)-4-(4-fluorophenyl)-N-hydroxy-4-methoxy-2-(2-(4-phenylpiperidin-1-yl)ethyl)butanamide] | 760
28 | CO[C@H](C[C@H](CCN(C)CCO)C(=O)NO)c1ccc(F)cc1 [Compound 167922] | 1490
29 | CO[C@H](C[C@H](CCN(C)c1ccc(-c2ccc(F)c(C)c2)cc1)C(=O)NO)c1ccc(F)cc1 [Compound 168038, (2S,4R)-2-(2-((4′-fluoro-3′-methylbiphenyl-4-yl)(methyl)amino)ethyl)-4-(4-fluorophenyl)-N-hydroxy-4-methoxybutanamide] | 910
30 | CO[C@@H](CCC(=O)NO)c1ccc(F)cc1 [Compound 167205, (S)-4-(4-fluorophenyl)-N-hydroxy-4-methoxybutanamide] | 225000
31 | CO[C@H](C[C@H](CCN1CCOCC1)C(=O)NO)c1ccc(F)cc1 [Compound 167829, (2S,4R)-4-(4-fluorophenyl)-N-hydroxy-4-methoxy-2-(2-morpholinoethyl)butanamide] | 5700
32 | CO[C@H](C[C@H](CCN(C)c1ccccc1)C(=O)NO)c1ccc(F)cc1 [Compound 168028, (2S,4R)-4-(4-fluorophenyl)-N-hydroxy-4-methoxy-2-(2-(methyl(phenyl)amino)ethyl)butanamide] | 1820
33 | CO[C@H](C[C@H](CCN1CCCCCCC1)C(=O)NO)c1ccc(F)cc1 [Compound 167912, (2S,4R)-2-(2-(azocan-1-yl)ethyl)-4-(4-fluorophenyl)-N-hydroxy-4-methoxybutanamide] | 284000
34 | CO[C@H](C[C@H](C/C=C/c1ccccc1)C(=O)NO)c1ccc(F)cc1 [Compound 167354] | 9300
35 | CO[C@H](C[C@H](CCN(C)CCOc1ccccc1)C(=O)NO)c1ccc(F)cc1 [Compound 167890, (2S,4R)-4-(4-fluorophenyl)-N-hydroxy-4-methoxy-2-(2-(methyl(2-phenoxyethyl)amino)ethyl)butanamide] | 1600
36 | CO[C@H](C[C@H](CCN(C)Cc1ccc(F)cc1)C(=O)NO)c1ccc(F)cc1 [Compound 167795, (2S,4R)-2-(2-((4-fluorobenzyl)(methyl)amino)ethyl)-4-(4-fluorophenyl)-N-hydroxy-4-methoxybutanamide] | 2100
37 | CO[C@H](C[C@H](CCN1CCCCC1)C(=O)NO)c1ccc(F)cc1 [Compound 167889, (2S,4R)-4-(4-fluorophenyl)-N-hydroxy-4-methoxy-2-(2-(piperidin-1-yl)ethyl)butanamide] | 1500
38 | CCCC[C@@H](C[C@H](OC)c1ccc(F)cc1)C(=O)NO [Compound 167390, (25)-2-((2S)-2-(4-fluorophenyl)-2-methoxyethyl)-N-hydroxyhexanamide] | 224000
39 | CO[C@H](C[C@H](CCCCNCCCc1ccc(F)cc1)C(=O)NO)c1ccc(F)cc1 [Compound 168222, (S)-2-((R)-2-(4-fluorophenyl)-2-methoxyethyl)-6-(3-(4-fluorophenyl)propylamino)-N-hydroxyhexanamide] | 170
40 | CO[C@H](C[C@H](CCN(C)CCN(C)CCCc1ccccc1)C(=O)NO)c1ccc(F)cc1 [Compound 168082, (2S,4R)-4-(4-fluorophenyl)-N-hydroxy-4-methoxy-2-(2-(methyl(2-(methyl(3-phenylpropyl)amino)ethyl)amino)ethyl)butanamide] | 820
41 | O=C(CCC(OCc1ccccc1)c1ccc(F)cc1)NO (racemic) [Compound 167151, 4-(benzyloxy)-4-(4-fluorophenyl)-N-hydroxybutanamide] | 130000
42 | CCC[C@@H](C[C@@H](OC)c1ccc(F)c(C)c1)C(=O)NO [Compound 167675, (2S)-2-((2R)-2-(4-fluoro-3-methylphenyl)-2-methoxyethyl)-N-hydroxypentanamide] | 2600
43 | CO[C@H](C[C@H](CCN1CCN(Cc2ccc(F)c(C)c2)CC1)C(=O)NO)c1ccc(F)cc1 [Compound 167960, (2S,4R)-2-(2-(4-(4-fluoro-3-methylbenzyl)piperazin-1-yl)ethyl)-4-(4-fluorophenyl)-N-hydroxy-4-methoxybutanamide] | 970
44 | CO[C@H](C[C@H](CCN1CCC[C@H](CO)C1)C(=O)NO)c1ccc(F)cc1 [Compound 168039, (2S,4R)-4-(4-fluorophenyl)-N-hydroxy-2-(2-((S)-3-(hydroxymethyl)piperidin-1-yl)ethyl)-4-methoxybutanamide] | 580
45 | CO[C@H](C[C@H](CCN1CCN(Cc2ccccc2)CC1)C(=O)NO)c1ccc(F)cc1 [Compound 167962, (2S,4R)-2-(2-(4-benzylpiperazin-1-yl)ethyl)-4-(4-fluorophenyl)-N-hydroxy-4-methoxybutanamide] | 1900
